Reference: patent publication US5569658A, “Tricyclic derivatives” (Zeneca Limited, priority 1993, dated 1996)

Legend:
[1] = molecular target: T1, receptor tyrosine kinase (Homo sapiens, UniProt P00533); experiment: in vitro assay: inhibition of the enzyme receptor tyrosine kinase (Test (a)); format: biochemical; details: partially purified enzyme from A-431 cells; EGF; peptide substrate, [γ-32P]ATP; 25° C., 10 minutes
T1 construct: Receptor tyrosine kinase was obtained in partially purified form from A-431 cells; endogenous in cells; host or cells: A-431 cells (human vulval carcinoma); partially purified, Triton X-100 solubilised membrane fraction
Protocol: (a) An in vitro assay which determines the ability of a test compound to inhibit the enzyme receptor tyrosine kinase. Receptor tyrosine kinase was obtained in partially purified form from A-431 cells (derived from human vulval carcinoma) by procedures related to those described by Carpenter et al., J. Biol. Chem., 1979, 254, 4884, Cohen et al., J. Biol. Chem., 1982, 257, 1523 and by Braun et al., J. Biol. Chem., 1984, 259, 2051.
A-431 cells were grown to confluence using Dulbecco's modified Eagle's medium (DMEM) containing 5% fetal calf serum (FCS). The obtained cells were homogenised in a hypotonic borate/EDTA buffer at pH 10.1. The homogenate was centrifuged at 400 g for 10 minutes at 0°-4° C. The supernatant was centrifuged at 25,000 g for 30 minutes at 0°-4° C. […]
The test compound/EGF mixture solution (5 μl) was added to the test enzyme solution (10 μl) and the mixture was incubated at 0°-4° C. for 30 minutes. […] Radioactivity present in the filter paper was measured using a liquid scintillation counter (Sequence A). […]
Receptor tyrosine kinase inhibition was calculated as follows: [formula]
The extent of inhibition was then determined at a range of concentrations of test compound to give an IC50 value.

[2] = system: human naso-pharyngeal cancer cell line KB; experiment: in vitro assay: inhibition of growth of the human naso-pharyngeal cancer cell line KB (Test (b)); format: cell-based; details: 72 h, EGF (10 ng/ml), 3 days, MTT
Protocol: (b) An in vitro assay which determines the ability of a test compound to inhibit the growth of the human naso-pharyngeal cancer cell line KB.
KB cells were seeded into wells at a density of 1×10^4 -1.5×10^4 cells per well and grown for 24 hours in DMEM supplemented with 5% FCS (charcoal-stripped). Cell growth was determined after incubation for 3 days by the extent of metabolism of MTT tetrazolium dye to furnish a bluish color. Cell growth was then determined in the presence of EGF (10 ng/ml) or in the presence of EGF (10 ng/ml) and a test compound at a range of concentrations. An IC50 value could then be calculated.

[3] = system: liver hepatocyte; experiment: in vivo assay: inhibition of TGFα-stimulated liver hepatocyte growth in rats (Test (c)); design: species or system rat; details: TGFα 400 μg/kg subcutaneously; for ED50: Rattus norvegicus, Hepatocyte, male rats, usually oral, approximate ED50, read-out: ED50 in Test (c), inhibition of liver hepatocyte proliferation (BrdU uptake)
Protocol: (c) An in vivo assay in a group of male rats which determines the ability of a test compound (usually administered orally as a ball-milled suspension in 0.5% polysorbate) to inhibit the stimulation of liver hepatocyte growth caused by the administration of the growth factor TGFα (400 μg/kg subcutaneously, usually dosed twice, 3 and 7 hours respectively after the administration of the test compound).
In a control group of rats, the administration of TGFα causes on average a 5-fold stimulation of liver hepatocyte growth.
Cell-growth in the control and test animals is determined as follows:
On the morning of the day after the dosing of the test compound (or 0.5% polysorbate in the control group), the animals are dosed with bromodeoxyuridine (BrdU; 100 mg/kg intraperitoneally). The animals are killed four hours later and the livers are excised. […] Further tests were carried out using a range of doses of the test compounds to allow the calculation of an approximate ED50 value for the inhibition of liver hepatocyte proliferation as determined by inhibition of the uptake of BrdU.

[4] = system: human mammary carcinoma which expresses epidermal growth factor (EGF) receptor tyrosine kinase; details: athymic nude mice; Toi et al., 1990; cited from earlier work
[5] = system: another carcinoma which does not express EGF receptor tyrosine kinase; details: Toi et al., 1990; cited from earlier work

T1 sequence (P00533 25-1210): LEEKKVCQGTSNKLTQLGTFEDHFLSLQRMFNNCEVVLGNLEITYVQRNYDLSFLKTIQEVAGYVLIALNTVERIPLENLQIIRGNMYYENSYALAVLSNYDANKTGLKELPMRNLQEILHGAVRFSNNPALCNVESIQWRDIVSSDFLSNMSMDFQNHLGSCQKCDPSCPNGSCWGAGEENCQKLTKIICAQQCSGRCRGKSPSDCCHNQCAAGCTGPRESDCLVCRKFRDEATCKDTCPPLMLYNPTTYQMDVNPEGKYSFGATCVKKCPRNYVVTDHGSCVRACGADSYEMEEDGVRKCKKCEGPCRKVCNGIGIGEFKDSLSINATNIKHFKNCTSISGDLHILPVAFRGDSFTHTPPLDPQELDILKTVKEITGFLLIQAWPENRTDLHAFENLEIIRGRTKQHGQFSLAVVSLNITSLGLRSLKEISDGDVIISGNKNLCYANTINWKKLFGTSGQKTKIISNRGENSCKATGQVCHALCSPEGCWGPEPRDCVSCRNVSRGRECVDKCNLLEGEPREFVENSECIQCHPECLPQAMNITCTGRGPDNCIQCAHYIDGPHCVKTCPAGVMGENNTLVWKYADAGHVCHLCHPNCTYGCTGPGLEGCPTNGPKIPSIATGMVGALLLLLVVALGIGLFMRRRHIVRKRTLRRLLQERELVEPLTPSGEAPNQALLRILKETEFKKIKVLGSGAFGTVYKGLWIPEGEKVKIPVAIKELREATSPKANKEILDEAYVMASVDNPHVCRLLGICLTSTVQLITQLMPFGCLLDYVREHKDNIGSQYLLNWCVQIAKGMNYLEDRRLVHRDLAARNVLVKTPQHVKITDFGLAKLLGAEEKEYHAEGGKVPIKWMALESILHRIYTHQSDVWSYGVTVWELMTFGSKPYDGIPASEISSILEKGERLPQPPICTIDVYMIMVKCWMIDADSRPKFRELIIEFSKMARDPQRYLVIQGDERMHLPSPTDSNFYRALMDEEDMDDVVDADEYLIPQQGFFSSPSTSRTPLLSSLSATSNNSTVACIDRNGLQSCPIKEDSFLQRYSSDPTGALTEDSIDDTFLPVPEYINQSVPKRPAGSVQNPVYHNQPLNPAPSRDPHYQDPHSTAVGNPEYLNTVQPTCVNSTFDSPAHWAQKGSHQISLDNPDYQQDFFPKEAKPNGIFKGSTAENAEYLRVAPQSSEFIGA

| Compound | IC50 [1] | IC50 [2] | ED50 [3] | effect on tumour growth, carcinoma expressing EGF receptor tyrosine kinase [4] | effect on tumour growth, carcinoma not expressing EGF receptor tyrosine kinase [5] | stimulation of liver hepatocyte growth ([3]; control group of rats, on average) |
| --- | --- | --- | --- | --- | --- | --- |
| Cc1cccc(Nc2ncnc3cc4c(cc23)[nH]c(=O)n4C)c1 [3-methyl-8-(3'-methylanilino)-1,2-dihydro-3H-imidazo[4,5-g]quinazolin-2-one] | 16 nM | 1190 nM | < 12.5 mg/kg | – | – | – |
| Cc1cccc(Nc2ncnc3cc4c(cc23)ncn4C)c1 [3-methyl-8-(3'-methylanilino)-3H-imidazo[4,5-g]-quinazoline] | 35 nM | 970 nM | < 5 mg/kg | – | – | – |
| O=CN/C=C/c1cc(O)ccc1O [erbstatin] | – | – | – | specifically attenuates the growth | without effect | – |
| TGFα: the growth factor TGFα | – | – | – | – | – | ~5 -fold |
